Results reported in US9481648B2, “Kinase inhibitors” (Respivert Limited, priority 2013, dated 2016).
pIC50: −log10 of the molar value. Like-named read-outs stand apart in the source and are kept apart here.

Key:
GSK 3α = GSK 3α (Homo sapiens (Human), UniProt P49840); test: GSK 3α enzyme inhibition (FRET, Z-LYTE; Method 2); type: biochemical; settings: read-out: IC50 Values for Enzyme Inhibition GSK3α
Procedure, shortened: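 Phosphorylation was taken from the donor (coumarin) to acceptor (fluorescein) emission ratio after 1 h protease development, which cleaves only unphosphorylated peptide. Before that, peptide (8 μM stock) plus ATP (40 μM stock) reacted 1 h. This followed a 105 min RT preincubation of GSK3-α with compound stocks of 10–0.01 μg/mL.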

PBMCs = test: LPS-induced TNFα/IL-8 release in PBMC cells (assay b); type: cell-based, human; settings: LPS-stimulated, read-out: IC50 Values for Inhibition of Cytokine Release PBMCs IL-8
Procedure: Peripheral blood mononuclear cells (PBMCs) from healthy subjects are separated from whole blood using a density gradient (Lymphoprep, Axis-Shield Healthcare). The PBMCs are seeded in 96 well plates and treated with compounds at the desired concentration for 2 hours before addition of 1 ng/mL LPS (Escherichia Coli 0111:B4 from Sigma Aldrich) for 24 hours under normal tissue culture conditions (37° C., 5% CO2). The supernatant is harvested for determination of IL-8 and TNFα concentrations by sandwich ELISA (Duo-set, R&D systems) and read on the fluorescence microplate reader (Varioskan® Flash, ThermoFisher Scientific).

CYP3A4 = CYP3A4 (Homo sapiens (Human), UniProt P08684); test: CYP3A4 inhibition study; type: in vitro ADME; settings: 15 μM
Procedure: (§1) Assessment of certain in vitro ADME (absorption, distribution, metabolism, and excretion) parameters for certain compounds of the invention was conducted by BioFocus (Saffron Walden, UK).

CYP2C9 = CYP2C9 (Homo sapiens (Human), UniProt P11712); test: CYP2C9 inhibition study; type: in vitro ADME; settings: 5 μM (precipitation at 15 μM)
Procedure: as §1

Chain of CYP3A4 (P08684 whole entry): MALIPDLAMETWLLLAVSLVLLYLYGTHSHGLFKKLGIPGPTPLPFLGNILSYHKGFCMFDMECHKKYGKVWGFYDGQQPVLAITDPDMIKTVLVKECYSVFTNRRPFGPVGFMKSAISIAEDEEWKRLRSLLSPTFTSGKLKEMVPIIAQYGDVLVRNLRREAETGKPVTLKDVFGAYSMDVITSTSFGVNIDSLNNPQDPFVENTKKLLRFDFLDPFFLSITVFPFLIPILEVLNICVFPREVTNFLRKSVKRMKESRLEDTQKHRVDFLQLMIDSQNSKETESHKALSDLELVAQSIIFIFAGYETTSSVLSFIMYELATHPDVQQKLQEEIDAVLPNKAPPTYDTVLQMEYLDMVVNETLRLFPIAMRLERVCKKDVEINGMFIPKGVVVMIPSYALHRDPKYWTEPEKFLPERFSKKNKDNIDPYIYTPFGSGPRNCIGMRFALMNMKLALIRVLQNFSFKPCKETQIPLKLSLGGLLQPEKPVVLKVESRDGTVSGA
Chain of CYP2C9 (P11712 whole entry): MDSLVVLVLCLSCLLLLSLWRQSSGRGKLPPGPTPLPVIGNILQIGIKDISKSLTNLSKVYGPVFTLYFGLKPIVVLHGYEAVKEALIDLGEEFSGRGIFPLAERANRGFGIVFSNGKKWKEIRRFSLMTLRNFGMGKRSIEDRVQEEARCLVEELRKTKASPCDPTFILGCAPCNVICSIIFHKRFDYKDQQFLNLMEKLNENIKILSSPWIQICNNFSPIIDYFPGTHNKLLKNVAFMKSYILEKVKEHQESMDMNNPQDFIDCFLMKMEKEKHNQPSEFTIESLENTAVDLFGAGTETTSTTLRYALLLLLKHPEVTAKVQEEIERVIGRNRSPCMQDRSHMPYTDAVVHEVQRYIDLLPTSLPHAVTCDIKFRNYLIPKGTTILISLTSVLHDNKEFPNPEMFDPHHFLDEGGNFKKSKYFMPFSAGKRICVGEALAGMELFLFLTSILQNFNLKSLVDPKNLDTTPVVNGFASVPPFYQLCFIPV
Chain of GSK 3α (P49840 whole entry): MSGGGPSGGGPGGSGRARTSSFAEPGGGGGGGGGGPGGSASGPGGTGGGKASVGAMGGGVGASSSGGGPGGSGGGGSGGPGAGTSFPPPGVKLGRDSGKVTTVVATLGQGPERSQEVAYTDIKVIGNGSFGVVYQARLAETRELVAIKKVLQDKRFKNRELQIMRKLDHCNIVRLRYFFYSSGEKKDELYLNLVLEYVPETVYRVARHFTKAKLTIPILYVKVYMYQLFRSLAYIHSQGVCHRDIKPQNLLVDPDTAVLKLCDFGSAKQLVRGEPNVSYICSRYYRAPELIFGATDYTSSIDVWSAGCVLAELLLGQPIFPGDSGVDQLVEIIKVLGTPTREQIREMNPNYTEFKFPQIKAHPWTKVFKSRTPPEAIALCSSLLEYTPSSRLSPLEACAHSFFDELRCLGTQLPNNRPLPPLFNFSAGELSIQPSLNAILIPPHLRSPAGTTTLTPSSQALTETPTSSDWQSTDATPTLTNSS

Structure (SMILES)	pIC50 (GSK 3α)	pIC50 (PBMCs)	15 μM % Inh (CYP3A4; CYP3A4, 0 min preincubation)	15 μM % Inh (CYP3A4; CYP3A4, 30 min preincubation)	% Inh (inhibition at 5 μM reported instead) (CYP2C9; CYP2C9, 0 min preincubation)	% Inh (inhibition at 5 μM reported instead) (CYP2C9; CYP2C9, 30 min preincubation)	pIC50 (PBMCs; Homo sapiens, PBMC)
COCCOCCOCCOCCNC(=O)c1cc(Nc2cc(Oc3ccc(NC(=O)Nc4cc(C(C)(C)C)cc(NS(C)(=O)=O)c4OC)c4ccccc34)ccn2)cc(OC)c1 [Example 85(v), 3-[[4-[[4-[[5-tert-Butyl-3-(methanesulfonamido)-2-methoxyphenyl]-carbamoylamino]-1-naphthyl]oxy]-2-pyridyl]amino]-5-methoxy-N-[2-[2-[2-(2-methoxyethoxy)ethoxy]ethoxy]-ethyl]benzamide]	5.60	9.40	–	–	–	–	–
C#CC(C)(C)c1cc(NC(=O)Nc2ccc(Oc3ccnc(Nc4cc(C)c5[nH]ncc5c4)n3)c3ccccc23)n(-c2ccc(C)cc2)n1 [Ref Cpd A]	–	–	41%	92%	31^[†] %	66^[†] %	–
COc1c(NC(=O)Nc2ccc(Oc3ccnc(Nc4ccccc4)c3)c3ccccc23)cc(C(C)(C)C)cc1C(=O)N[C@H]1CCOC1 [84(d), 3-[[4-[(2-Anilino-4-pyridyl)oxy]-1-naphthyl]carbamoylamino]-5-tert-butyl-2-methoxy-N-[(3S)-tetrahydrofuran-3-yl]benzamide]	5.20	–	–	–	–	–	7.94
